Test results from patent US20100297256A1, “METHODS AND COMPOSITIONS FOR INHIBITING INTEGRINS USING TELLURIUM-CONTAINING COMPOUNDS” (priority 2007, published 2010).

Assays:
[1] = test system: HL-60 cells; test: AML chemotherapy resistance assay (XTT cell viability), HL-60; format: cell-based, human; settings: HL-60
Method: (§1) Cell viability was determined using a cell proliferation kit (Roche), which colors viable cells using the tetrazolium salt XTT.
(§2) 2×10^4 per 200 μl cells were seeded in 96-microwell flat bottom plates. After 24 hours, the tested compound(s) (e.g., AS101, ARA-C, DTNB, anti-VLA-4 antibody) was added, and the cells were incubated overnight with the tested compound(s). The XTT solution was then added and the cells were incubated for 4 hours at 37° C. Cell viability was than evaluated by measuring absorbance at 450 nm using a Microplate Spectrophotometer (Spectra MAX Plus, Molecular Devices).

[2] = test system: U937 cells; test: AML chemotherapy resistance assay (XTT cell viability), U937; format: cell-based, human; settings: for resistance of cells to the agent on fibronectin-coated plates in comparison with VCAM-1- and BSA-coated plates: U937
Method: as §1, §2
The role of VLA protein in fibronectin-induced resistance to chemotherapy was investigated by performing a chemotherapy resistance assay, as described hereinabove, with anti-VLA-4 and anti-VLA-5 antibodies. U937 cells were grown in fibronectin- and BSA-coated plates. Antibodies were added at a concentration of 1 μg/ml.

[3] = test system: U937 cells; test: Fluorescence-based flow cytometry analysis of cell death; set-up: species or system human; settings: agent alone
Text: Fluorescence-based flow cytometry was used to measure the effect of tellurium-containing compounds on chemotherapy-induced cell death. Accumulation of cells in the sub-G1 fraction, increased proportion of annexin V-positive and propidium iodide-positive cells and increased caspase activity were each used as indicators of increased cell death, using standard procedures.

[4] = test system: Bcl2; test: Western blot analysis of Bcl2; format: cell-based, human; settings: ARA-C alone
Text: The expression of the survival factor Bcl2 was examined via Western blot analysis in U937 cells treated with the chemotherapeutic agent ARA-C.

[5] = test system: leukemic cells from AML patients; test: Sensitization of leukemic cells from AML patients to chemotherapy; format: cell-based, human
Method: as §2
Bone marrow samples from patients diagnosed, with AML, but not yet treated, were obtained and grown in vitro. The leukemic cells obtained therefrom were tested for levels of VLA-4 and VLA-5 via fluorescence based cytometry, using FITC (fluorescein isothiocyanate)-conjugated anti-VLA-4 and anti-VLA-5 antibodies, using standard procedures. The cells were grown on both fibronectin and BSA, and the effect of AS101 on chemotherapy resistance was measured.

[6] = test system: leukemic cells; test: Chemotherapy resistance assay with DTNB, leukemic cells; format: cell-based
Method: as §2
The role of free thiols in VLA-4/fibronectin-induced resistance to chemotherapy was therefore investigated by performing a chemotherapy resistance assay, as described hereinabove, with the membrane-impermeable thiol blocker DTNB (5 mM).

| Compound | resistance of cells to the agent on fibronectin-coated plates in comparison with VCAM-1- and BSA-coated plates [1] | resistance of cells to the agent on fibronectin-coated plates in comparison with VCAM-1- and BSA-coated plates [2] | percentage of annexin V-positive and propidium iodide-positive cells ([3]; U937 on BSA) | percentage of cells in the sub-G1 fraction ([3]; U937 on BSA) | percentage of annexin V-positive and propidium iodide-positive cells ([3]; U937 on fibronectin) | percentage of cells in the sub-G1 fraction ([3]; U937 on fibronectin) | percentage of cells with high caspase-3 activity ([3]; U937 on fibronectin) | expression of Bcl2 ([4]; U937 on BSA) | expression of Bcl2 ([4]; U937 on fibronectin) | viability of cells exposed to ARA-C ([5]; 4 AML patients with low VLA-4 levels, on fibronectin and BSA) | resistance of cells to ARA-C ([5]; 8 AML patients with high VLA-4 levels, on fibronectin) | viability of cells exposed to ARA-C ([5]; Patient A, low VLA-4, on fibronectin and BSA) | resistance of cells to ARA-C ([5]; Patient B, high VLA-4, on fibronectin) | effect on viability of cells exposed to ARA-C, alone or in combination ([2]; U937 on BSA) | effect on viability of cells exposed to ARA-C, alone or in combination ([5]; low VLA-4 leukemic cells, fibronectin-coated plates) | sensitization to ARA-C-induced cell death ([6]; 5 mM DTNB, fibronectin-coated plates) | sensitization to ARA-C-induced cell death ([6]; DTNB, BSA-coated plates) |
| --- | --- | --- | --- | --- | --- | --- | --- | --- | --- | --- | --- | --- | --- | --- | --- | --- | --- |
| Nc1ccn([C@@H]2O[C@H](CO)[C@@H](O)[C@@H]2O)c(=O)n1 [ARA-C, cytosine arabinoside, reference compound] | more resistant | more resistant | large percentage | large percentage | slight increase | slight increase | little or no effect | reduced expression of Bcl2 considerably | did not decrease expression of Bcl2 | decreased effectively | relatively resistant to ARA-C | decreased effectively | relatively resistant to ARA-C |  |  |  |  |
| O=C(O)c1cc(SSc2ccc([N+](=O)[O-])c(C(=O)O)c2)ccc1[N+](=O)[O-] [DTNB, 5,5′-dithiobis-(2-nitrobenzoic acid)] |  |  |  |  |  |  |  |  |  |  |  |  |  | no effect either alone or in combination | no effect either alone or in combination | sensitizes leukemic cells grown in fibronectin-coated plates to ARA-C-induced cell death | no effect |
| COc1cccc2c1C(=O)c1c(O)c3c(c(O)c1C2=O)C[C@@](O)(C(C)=O)C[C@@H]3O[C@H]1C[C@H](N)[C@H](O)[C@H](C)O1 [daunorubicin, reference compound] | more resistant | more resistant |  |  |  |  |  |  |  |  |  |  |  |  |  |  |  |
